Experiments:
Format in all cases: cell-based
[1] = biological target: T1, STAT3 (Homo sapiens, UniProt P40763); assay: STAT3 reporter gene assay (luciferase), LNCaP stable cell line (pSTAT3-TA-luc), IL-6 stimulation
T1 construct: plasmid pSTAT3-TA-luc), which contains a stably operating STAT3 promoter; endogenous in cells
Procedure: 1-1) Experiment on the Inhibition of STAT3 Activity
A human prostate cancer cell line (LNCaP stable cell line; plasmid pSTAT3-TA-luc), which contains a stably operating STAT3 promoter, was cultured in RPMI1640 medium (Cat No. 11875, Life Technologies) containing 10% fetal bovine serum (FBS) (Cat No. SH30396, Thermo Scientific) and 150 μg/mL G-418 solution (Cat No. 04 727 894 001, Roche). The reporter gene assay using LNCaP stable cell line was performed in RPMI1640 medium containing 3% DCC-FBS without G-418 solution. LNCaP stable cells were plated in two (2) white 96-well plates with 30,000 cells/50 μL in each well. The cells were cultured at 37° C., under 5% CO2 for 24 hours, and then treated with the compounds listed in Examples which were diluted in various concentrations. Subsequently, IL-6 was added to each well with a final concentration of 10 ng/mL. Upon completion of the treatment with the compounds and IL-6, the cells were cultured at 37° C., under 5% CO2 for from 24 to 48 hours. The plates were observed under microscope and drug precipitation and particular findings were investigated and recorded.
The luciferase assay and the cell viability assay were performed respectively with one of the two plates. For the luciferase assay, the liquid media in the 96-well plate was removed, and then, 20 μL of passive cell lysis buffer was added to each well. After shaking the plate for 30 minutes, luciferase activities of each well were measured in a PHERAstar™ microplate reader (BMG LABTECH) using a luciferase assay system (Cat No. E1501, Promega). For the cell viability assay, the 96-well plate was placed at room temperature for 30 minutes, added with 20 μL/well of CellTiter-Glo solution (Cat No. G7573, Promega), and shaken for 10 minutes in order to measure cytotoxicity caused by the compounds listed in Examples with a PHERAstar™ microplate reader (BMG LABTECH). Wells without 0.1% DMSO and stimulation were used as a negative control and wells with 0.1% DMSO and stimulation were used as a positive control.

[2] = system: LNCaP; assay: Cell growth inhibition assay, prostate cancer cell line LNCaP (medium with 10 ng/mL IL-6); conditions: Homo sapiens, medium supplemented with 10 ng/mL of IL-6, 10,000 cells/well
Procedure: (§1) The inhibitory effects of the compounds of the present invention against the growth of cancer cells were evaluated as shown below. The cancer cell lines including stomach cancer cell line (AGS), breast cancer cell lines (MDA-MB-231, MDA-MB-468, and BT-549), prostate cancer cell lines (LNCaP and DU-145), colon cancer cell line (HCT116), ovarian cancer cell line (SW626), liver cancer cell line (Hep3B), kidney cancer cell line (ACHN), lung cancer cell line (NCI-H23) and blood cancer cell lines (HEL92.1.7 and U266) were cultured under the protocol provided by each supplier. A medium supplemented with 10 ng/mL of IL-6 was used for LNCaP, a prostate cancer cell line, when treated with a drug. Each type of cells to be used in experiments were sub-cultured in a 96-well plate by counting the exact number of cells using Tali™ Image-based Cytometer (Life Technologies). In a 96-well plate, AGS, HCT116, and DU-145 were employed with 3,000 cells/well; NCI-H23, SW626, Hep3B, ACHN, BT-549, MDA-MB-231, HEL92.1.7, and U266 were employed with 5,000 cells/well; and LNCaP and MDA-MB-468 were employed with 10,000 cells/well. The cells were treated with the compounds listed in Examples which were diluted in various concentrations. Upon completion of the compounds treatment, AGS, HCT116, SW626, DU145, NCI-H23, Hep3B, ACHN, BT-549, LNCaP, HEL92.1.7, and U266 cells were cultured at 37° C. under 5% CO2 for from 72 to 96 hours, and MDA-MB-231 and MDA-MB-468 cells were cultured at 37° C. in air for from 72 to 96 hours. Subsequently, the cells were observed under microscope and drug precipitation and particular findings were investigated and recorded. And then, the 96-well plate was placed at room temperature for 30 minutes, added with 20 μL/well of CellTiter-Glo solution (Cat No. G7573, Promega) and shaken for 10 minutes, followed by being subjected to the measurement using PHERAstar™ microplate reader (BMG LABTECH) according to the supplier's general luminometer protocol. Wells where only culture liquid added without cell plating were used as a negative control, whereas wells where culture liquid containing 0.1% DMSO instead of the compounds listed in Examples were used as a positive control.

[3] = system: DU-145; assay: Cell growth inhibition assay, prostate cancer cell line DU-145; conditions: Homo sapiens, DU-145 prostate cancer cell line
Procedure: as §1

T1 sequence (P40763 whole entry): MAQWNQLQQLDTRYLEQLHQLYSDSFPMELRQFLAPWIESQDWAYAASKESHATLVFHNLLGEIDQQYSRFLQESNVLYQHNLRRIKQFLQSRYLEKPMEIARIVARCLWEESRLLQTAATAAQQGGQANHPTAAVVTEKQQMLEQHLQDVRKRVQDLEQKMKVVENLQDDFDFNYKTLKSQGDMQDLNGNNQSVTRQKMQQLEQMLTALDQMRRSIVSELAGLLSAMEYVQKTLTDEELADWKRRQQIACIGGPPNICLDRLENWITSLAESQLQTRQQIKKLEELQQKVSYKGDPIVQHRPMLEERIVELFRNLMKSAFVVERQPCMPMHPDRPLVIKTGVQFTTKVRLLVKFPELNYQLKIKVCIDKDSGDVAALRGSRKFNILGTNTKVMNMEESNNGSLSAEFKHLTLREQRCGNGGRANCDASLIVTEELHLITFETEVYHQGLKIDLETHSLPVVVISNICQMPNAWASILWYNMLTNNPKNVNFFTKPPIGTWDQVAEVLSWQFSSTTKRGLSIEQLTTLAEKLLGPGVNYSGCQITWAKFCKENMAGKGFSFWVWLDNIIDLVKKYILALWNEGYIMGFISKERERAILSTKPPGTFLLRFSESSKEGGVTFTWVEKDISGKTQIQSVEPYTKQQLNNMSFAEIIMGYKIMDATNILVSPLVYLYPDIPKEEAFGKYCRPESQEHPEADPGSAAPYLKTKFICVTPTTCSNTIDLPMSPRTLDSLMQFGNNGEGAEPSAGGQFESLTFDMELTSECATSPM

Row | Compound | IC50 [1] [µM] | IC50 [2] [µM] | IC50 [3] [µM]
1 | CS(=O)(=O)Nc1ccc2sc(C(=O)Nc3cc(Cl)nc(Oc4ccc(Cl)cc4)c3)cc2c1 [Example 489, N-(2-chloro-6-(4-chlorophenoxy)pyridin-4-yl)-5-(methylsulfonamido)benzo[b]thiophene-2-carboxamide] | 0.11 | 0.11 | 0.031
2 | CC(C)Oc1cc(Oc2cc(Cl)cc(NC(=O)c3cc4cc(NS(C)(=O)=O)ccc4s3)c2)cc(OC(F)(F)F)c1 [Example 452, N-(3-chloro-5-(3-isopropoxy-5-(trifluoromethoxy)phenoxy)phenyl)-5-(methylsulfonamido)benzo[b]thiophene-2-carboxamide] | 0.079 | 0.33 | 0.027
3 | CC(C)Oc1cc(CN2CCNCC2)cc(C(C)(C)c2cc(Br)cc(NC(=O)c3cc4cc(NS(C)(=O)=O)ccc4s3)c2)c1 [Example 124, N-(3-bromo-5-(2-(3-isopropoxy-5-(piperazin-1-ylmethyl)phenyl)propan-2-yl)phenyl)-5-(methylsulfonamido)benzo[b]thiophene-2-carboxamide] | 4 | 6.5 | 2.1
4 | CS(=O)(=O)Nc1ccc2sc(C(=O)Nc3cc(Cl)cc(Oc4ccc(F)cc4)c3)cc2c1 [Example 446, N-(3-chloro-5-(4-fluorophenoxy)phenyl)-5-(methylsulfonamido)benzo[b]thiophene-2-carboxamide] | 0.096 | 0.13 | 0.065
5 | Cn1cncc1-c1cc(Cl)cc(NC(=O)c2cc3cc(NS(C)(=O)=O)ccc3s2)c1 [Example 340, N-(3-chloro-5-(1-methyl-1H-imidazol-5-yl)phenyl)-5-(methylsulfonamido)benzo[b]thiophene-2-carboxamide] | > 10 | > 1.1 | > 1.1
6 | CC(C)Oc1cc(OC(F)(F)F)cc(C(C)(C)c2cc(Cl)cc(NC(=O)c3cc4cc(NS(=O)(=O)CC5CCCO5)ccc4s3)c2)c1 (stereo not drawn) [Example 197, N-(3-chloro-5-(2-(3-isopropoxy-5-(trifluoromethoxy)phenyl)propan-2-yl)phenyl)-5-(((tetrahydrofuran-2-yl)methyl)sulfonamido)benzo[b]thiophene-2-carboxamide] | 0.012 | 0.065 | 0.016
7 | CC(C)Oc1cc(OC(F)(F)F)cc(N(C)c2cc(Cl)cc(NC(=O)c3cc4cc(NS(C)(=O)=O)ccc4s3)c2)c1 [Example 443, N-(3-chloro-5-((3-isopropoxy-5-(trifluoromethoxy)phenyl)(methyl)amino)phenyl)-5-(methylsulfonamido)benzo[b]thiophene-2-carboxamide] | 0.065 | 0.039 | 0.02
8 | COc1cccc(Oc2cc(Cl)cc(NC(=O)c3cc4cc(NS(C)(=O)=O)ccc4s3)c2)c1 [Example 457, N-(3-chloro-5-(3-methoxyphenoxy)phenyl)-5-(methylsulfonamido)benzo[b]thiophene-2-carboxamide] | 0.28 | 0.37 | 0.44
9 | COc1ccc(Oc2cc(Cl)cc(NC(=O)c3cc4cc(NS(C)(=O)=O)ccc4s3)c2)cc1 [Example 447, N-(3-chloro-5-(4-methoxyphenoxy)phenyl)-5-(methylsulfonamido)benzo[b]thiophene-2-carboxamide] | 0.27 | 0.49 | 0.14
10 | CC(C)Oc1cc(OC(F)(F)F)cc(C(C)(C)c2cc(Cl)cc(NC(=O)c3cc4cnc(NS(C)(=O)=O)cc4[nH]3)c2)c1 [Example 101, N-(3-chloro-5-(2-(3-isopropoxy-5-(trifluoromethoxy)phenyl)propan-2-yl)phenyl)-6-(methylsulfonamido)-1H-pyrrolo[3,2-c]pyridine-2-carboxamide] | 0.28 | 1.1 | 0.44
11 | CS(=O)(=O)Nc1cc2cc(C(=O)Nc3cc(Cl)cc(OC4CCCCC4)c3)sc2cc1Cl [Example 486, 6-chloro-N-(3-chloro-5-(cyclohexyloxy)phenyl)-5-(methylsulfonamido)benzo[b]thiophene-2-carboxamide] | 0.11 | 0.083 | 0.048
12 | CS(=O)(=O)Nc1ccc2sc(C(=O)Nc3cc(Cl)cc(Oc4ccc(F)c(OC(F)(F)F)c4)c3)cc2c1 [Example 470, N-(3-chloro-5-(4-fluoro-3-(trifluoromethoxy)phenoxy)phenyl)-5-(methylsulfonamido)benzo[b]thiophene-2-carboxamide] | 0.32 | 0.067 | 0.043
13 | CC(C)(c1ccc(F)cc1)c1cc(Cl)cc(NC(=O)c2cc3cc(NS(C)(=O)=O)c(Cl)cc3s2)c1 [Example 182, 6-chloro-N-(3-chloro-5-(2-(4-fluorophenyl)propan-2-yl)phenyl)-5-(methylsulfonamido)benzo[b]thiophene-2-carboxamide] | 0.012 | 0.018 | 0.005
14 | CC(C)Oc1cc(OC(F)(F)F)cc(C(C)(C)c2cc(Cl)cc(NC(=O)c3cc4cc(NS(C)(=O)=O)ccc4[s+]3[O-])c2)c1 (stereo not drawn) [Example 223, N-(3-chloro-5-(2-(3-isopropoxy-5-(trifluoromethoxy)phenyl)propan-2-yl)phenyl)-5-(methylsulfonamido)benzo[b]thiophene-2-carboxamide 1-oxide] | 0.24 | 0.17 | 0.005
15 | CC(C)(c1cc(Cl)cc(NC(=O)c2cc3cc(NS(C)(=O)=O)ccc3s2)c1)c1cc(OC(F)(F)F)ccc1F [Example 62, N-(3-chloro-5-(2-(2-fluoro-5-(trifluoromethoxy)phenyl)propan-2-yl)phenyl)-5-(methylsulfonamido)benzo[b]thiophene-2-carboxamide] | 0.011 | 0.075 | 0.016
16 | CS(=O)(=O)Nc1cc2cc(C(=O)Nc3cc(Cl)cc(Oc4ccc(F)c(F)c4)c3)sc2cc1Cl [Example 481, 6-chloro-N-(3-chloro-5-(3,4-difluorophenoxy)phenyl)-5-(methylsulfonamido)benzo[b]thiophene-2-carboxamide] | 0.015 | 0.036 | 0.008
17 | CC(C)(c1ccc(Cl)cc1)c1cc(Cl)cc(NC(=O)c2cc3cc(NS(C)(=O)=O)c(Cl)cc3s2)c1 [Example 172, 6-chloro-N-(3-chloro-5-(2-(4-chlorophenyl)propan-2-yl)phenyl)-5-(methylsulfonamido)benzo[b]thiophene-2-carboxamide] | 0.016 | 0.009 | 0.005
18 | CC(C)Oc1cc(CN2CCCC2)cc(C(C)(C)c2cc(Cl)cc(NC(=O)c3cc4cc(NS(C)(=O)=O)ccc4s3)c2)c1 [Example 125, N-(3-chloro-5-(2-(3-isopropoxy-5-(pyrrolidin-1-ylmethyl)phenyl)propan-2-yl)phenyl)-5-(methylsulfonamido)benzo[b]thiophene-2-carboxamide] | 0.89 | 2.1 | 0.46

— patent publication US10562912B2 (C&C Research Laboratories, priority 2013, dated 2020)
